We go through 31 molecules from patent publication US11192891B2, “Diazaspiro ROCK inhibitors” (BRISTOL-MYERS SQUIBB COMPANY, priority 2017, dated 2021).

In this experiment the target is ROCK2 (Homo sapiens, UniProt O75116). The experiment in a line: ROCK kinase inhibition assay, FITC peptide substrate, LABCHIP 3000 readout. The following applies: 5 μM ATP, 1.5 μM peptide substrate. The experiment is classed as biochemical. On the procedure: Compounds were dissolved in DMSO so that the final concentration of DMSO was <2%, and the reaction was initiated with Rho kinase variants. After incubation, the reaction was terminated by the addition of EDTA and the phosphorylated and non-phosphorylated peptides separated using a LABCHIP® 3000 Reader (Caliper Life Sciences). […] Compounds were tested in dose-response format, and the inhibition of kinase activity was calculated at each concentration of compound.
Chain of ROCK2 (O75116 whole entry, species assumed): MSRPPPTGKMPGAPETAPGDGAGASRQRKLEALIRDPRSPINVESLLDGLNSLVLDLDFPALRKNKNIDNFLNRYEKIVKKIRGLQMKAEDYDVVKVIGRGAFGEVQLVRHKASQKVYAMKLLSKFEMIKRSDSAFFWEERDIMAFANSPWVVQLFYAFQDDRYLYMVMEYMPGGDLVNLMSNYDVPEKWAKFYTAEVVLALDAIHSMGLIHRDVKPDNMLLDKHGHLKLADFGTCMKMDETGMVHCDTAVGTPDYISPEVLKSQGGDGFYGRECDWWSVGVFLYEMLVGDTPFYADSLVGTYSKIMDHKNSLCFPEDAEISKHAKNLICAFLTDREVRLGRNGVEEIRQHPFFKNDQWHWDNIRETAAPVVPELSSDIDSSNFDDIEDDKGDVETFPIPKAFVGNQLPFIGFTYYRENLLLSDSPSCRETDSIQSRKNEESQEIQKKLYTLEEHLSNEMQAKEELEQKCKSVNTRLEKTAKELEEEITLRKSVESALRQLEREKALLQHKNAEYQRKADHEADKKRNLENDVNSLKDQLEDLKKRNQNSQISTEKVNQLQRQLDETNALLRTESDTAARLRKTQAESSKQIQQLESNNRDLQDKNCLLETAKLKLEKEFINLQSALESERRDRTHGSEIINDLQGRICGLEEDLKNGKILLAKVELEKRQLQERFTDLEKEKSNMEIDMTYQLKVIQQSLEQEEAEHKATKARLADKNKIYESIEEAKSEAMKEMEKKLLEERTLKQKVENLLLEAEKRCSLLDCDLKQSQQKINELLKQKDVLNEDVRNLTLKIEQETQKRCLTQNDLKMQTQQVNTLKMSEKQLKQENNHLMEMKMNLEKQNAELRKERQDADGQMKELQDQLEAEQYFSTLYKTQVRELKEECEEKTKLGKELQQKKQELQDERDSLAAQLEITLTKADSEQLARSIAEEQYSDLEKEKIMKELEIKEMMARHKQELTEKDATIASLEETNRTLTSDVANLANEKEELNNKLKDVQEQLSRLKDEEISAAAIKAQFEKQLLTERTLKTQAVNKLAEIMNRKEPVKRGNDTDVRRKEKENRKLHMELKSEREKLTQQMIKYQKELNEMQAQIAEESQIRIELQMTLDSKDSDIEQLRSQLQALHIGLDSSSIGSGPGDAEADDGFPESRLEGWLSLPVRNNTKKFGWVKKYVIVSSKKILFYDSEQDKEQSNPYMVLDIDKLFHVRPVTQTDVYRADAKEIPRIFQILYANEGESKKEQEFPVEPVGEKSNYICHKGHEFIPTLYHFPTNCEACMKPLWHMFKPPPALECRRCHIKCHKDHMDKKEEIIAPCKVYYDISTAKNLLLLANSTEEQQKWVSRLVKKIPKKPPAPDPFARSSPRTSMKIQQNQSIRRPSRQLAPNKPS
As for `COc1cc(N2CCC3(CCN(C(=O)c4ccc(N5CCN(C6CCCCC6)CC5)cc4)CC3)C2=O)ccc1-c1cn[nH]c1` [Example 226, 8-[4-(4-cyclohexylpiperazin-1-yl)benzoyl]-2-[3-methoxy-4-(1H-pyrazol-4-yl)phenyl]-2,8-diazaspiro[4.5]decan-1-one], 0.7 nM corresponded to half-maximal inhibition (IC50).
Next, `COc1cc(N2CCC3(CCN(C(=O)c4ccc5ncsc5c4)CC3)C2=O)ccc1-c1cn[nH]c1` [Example 83]: 26 nM; `COc1cc(N2CCC3(CCN(C(=O)c4ccc5c(ccn5C)c4)CC3)C2=O)ccc1-c1cn[nH]c1` [Example 153, 2-[3-methoxy-4-(1H-pyrazol-4-yl)phenyl]-8-(1-methyl-1H-indole-5-carbonyl)-2,8-diazaspiro[4.5]decan-1-one]: 4.5 nM; `COc1cc(N2CCC3(CCN(C(=O)c4ccc(-c5ccccc5)cc4)CC3)C2=O)ccc1-c1cn[nH]c1` [Example 61, 8-{[1,1′-biphenyl]-4-carbonyl}-2-[3-methoxy-4-(1H-pyrazol-4-yl)phenyl]-2,8-diazaspiro[4.5]decan-1-one]: 18 nM.
Then `CN1CCN(c2ccc(C(=O)N3CCC4(CC3)CCN(c3ccc(-c5ccc6[nH]ncc6c5)cc3)C4=O)cc2)CC1` [Example 37, 2-[4-(1H-indazol-5-yl)phenyl]-8-[4-(4-methylpiperazin-1-yl)benzoyl]-2,8-diazaspiro[4.5]decan-1-one], with 0.5 nM; and `COc1cc(N2CCC3(CCN(C(=O)c4ccc(N5CCN(Cc6ccc(Cl)cc6)CC5)cc4)CC3)C2=O)ccc1-c1cn[nH]c1` [Example 227, 8-(4-{4-[(4-chlorophenyl)methyl]piperazin-1-yl}benzoyl)-2-[3-methoxy-4-(1H-pyrazol-4-yl)phenyl]-2,8-diazaspiro[4.5]decan-1-one], with 2.2 nM.
Next, `COc1cc(N2CCC3(CCN(C(=O)c4ccc(-c5noc(C(C)C)n5)cc4)CC3)C2=O)ccc1-c1cn[nH]c1` [Example 134, 2-[3-methoxy-4-(1H-pyrazol-4-yl)phenyl]-8-{4-[5-(propan-2-yl)-1,2,4-oxadiazol-3-yl]benzoyl}-2,8-diazaspiro[4.5]decan-1-one]: 75 nM; `COc1cc(N2CCC3(CCN(C(=O)c4ccc(-n5cccn5)cc4)CC3)C2=O)ccc1-c1cn[nH]c1` [Example 124, 2-[3-methoxy-4-(1H-pyrazol-4-yl)phenyl]-8-[4-(1H-pyrazol-1-yl)benzoyl]-2,8-diazaspiro[4.5]decan-1-one]: 62 nM.
Molecule `COc1ccc2cc(C(=O)N3CCC4(CC3)CCN(c3ccc(-c5cn[nH]c5)c(OC)c3)C4=O)ccc2c1` [Example 176, 2-[3-methoxy-4-(1H-pyrazol-4-yl)phenyl]-8-(6-methoxynaphthalene-2-carbonyl)-2,8-diazaspiro[4.5]decan-1-one] registered an IC50 of 20 nM.
Then `COc1ccc(C(=O)N2CCC3(CC2)CCN(c2ccc(-c4cn[nH]c4)c(OC)n2)C3=O)cc1` [Example 39, 2-[6-methoxy-5-(1H-pyrazol-4-yl)pyridin-2-yl]-8-(4-methoxybenzoyl)-2,8-diazaspiro[4.5]decan-1-one], with 4 nM; and `COc1cc(N2CCC3(CCN(C(=O)c4ccc(N5CCN(C)CC5)cc4)CC3)C2=O)ccc1-c1cn[nH]c1` [Example 120, 2-[3-methoxy-4-(1H-pyrazol-4-yl)phenyl]-8-[4-(4-methylpiperazin-1-yl)benzoyl]-2,8-diazaspiro[4.5]decan-1-one], with 0.3 nM; and `COc1cccc(NC(=O)N2CCC3(CC2)CCN(c2ccc(-c4cn[nH]c4)c(OC)c2)C3=O)c1` [Example 216, 2-[3-methoxy-4-(1H-pyrazol-4-yl)phenyl]-N-(3-methoxyphenyl)-1-oxo-2,8-diazaspiro[4.5]decane-8-carboxamide], with 2250 nM.
Molecule `COc1cc(N2CCC3(CCN(S(=O)(=O)c4ccc(S(C)(=O)=O)cc4)CC3)C2=O)ccc1-c1cn[nH]c1` [Example 218, 8-(4-methanesulfonylbenzenesulfonyl)-2-[3-methoxy-4-(1H-pyrazol-4-yl)phenyl]-2,8-diazaspiro[4.5]decan-1-one] came in with a half-maximal inhibitory concentration (IC50) of 843 nM.
In turn, `COc1cc(N2CCC3(CCN(C(=O)c4ccc(CO)cc4)CC3)C2=O)ccc1-c1cn[nH]c1` [Example 15, 8-[4-(hydroxymethyl)benzoyl]-2-[3-methoxy-4-(1H-pyrazol-4-yl)phenyl]-2,8-diazaspiro[4.5]decan-1-one] gave an IC50 of 53 nM.
With `COC(=O)c1ccc(C(=O)N2CCC3(CC2)CCN(c2ccc(-c4cn[nH]c4)c(OC)c2)C3=O)cc1` [Example 24, methyl 4-{2-[3-methoxy-4-(1H-pyrazol-4-yl)phenyl]-1-oxo-2,8-diazaspiro[4.5]decane-8-carbonyl}benzoate], the IC50 stood at 23 nM.
Next, `COc1cc(N2CCC3(CCN(C(=O)c4ccc(C)nc4)CC3)C2=O)ccc1-c1cn[nH]c1` [Example 72, 2-[3-methoxy-4-(1H-pyrazol-4-yl)phenyl]-8-(6-methylpyridine-3-carbonyl)-2,8-diazaspiro[4.5]decan-1-one]: 219 nM; `COc1cc(N2CCC3(CCN(C(=O)c4ccc(N5CCN(Cc6csnn6)CC5)cc4)CC3)C2=O)ccc1-c1cn[nH]c1` [Example 224, 2-[3-methoxy-4-(1H-pyrazol-4-yl)phenyl]-8-(4-{4-[(1,2,3-thiadiazol-4-yl)methyl]piperazin-1-yl}benzoyl)-2,8-diazaspiro[4.5]decan-1-one]: 1.5 nM; `COc1cc(N2CCC3(CCN(C(=O)c4ccc(N5CCN(CC(c6ccccc6)c6ccccc6)CC5)cc4)CC3)C2=O)ccc1-c1cn[nH]c1` [Example 222, 8-{4-[4-(2,2-diphenylethyl)piperazin-1-yl]benzoyl}-2-[3-methoxy-4-(1H-pyrazol-4-yl)phenyl]-2,8-diazaspiro[4.5]decan-1-one]: 9.3 nM.
Then `COc1cc(N2CCC3(CCN(C(=O)c4ccc(N5CCN(CC6CCCC6)CC5)cc4)CC3)C2=O)ccc1-c1cn[nH]c1` [Example 230, 8-{4-[4-(cyclopentylmethyl)piperazin-1-yl]benzoyl}-2-[3-methoxy-4-(1H-pyrazol-4-yl)phenyl]-2,8-diazaspiro[4.5]decan-1-one], with 2.2 nM; and `COc1cc(N2CCC3(CCN(C(=O)Nc4ccc(N(C)C)cc4)CC3)C2=O)ccc1-c1cn[nH]c1` [Example 215, N-[4-(dimethylamino)phenyl]-2-[3-methoxy-4-(1H-pyrazol-4-yl)phenyl]-1-oxo-2,8-diazaspiro[4.5]decane-8-carboxamide], with 791 nM; and `O=C(c1ccc(OC(F)(F)F)cc1)N1CCC2(CC1)CCN(c1ccc(-c3cn[nH]c3)cc1)C2=O` [Example 10, 2-[4-(1H-pyrazol-4-yl)phenyl]-8-[4-(trifluoromethoxy)benzoyl]-2,8-diazaspiro[4.5]decan-1-one], with 95 nM.
In turn, `COc1ccc(C(=O)N2CCC3(CC2)CCN(c2cccc(-c4ccc5[nH]ncc5c4)c2)C3=O)cc1` [Example 52, 2-[3-(1H-indazol-5-yl)phenyl]-8-(4-methoxybenzoyl)-2,8-diazaspiro[4.5]decan-1-one] had an IC50 of 1870 nM.
As to `COc1cc(N2CCC3(CCN(C(=O)c4ncc(Br)cn4)CC3)C2=O)ccc1-c1cn[nH]c1` [Example 116, 8-(5-bromopyrimidine-2-carbonyl)-2-[3-methoxy-4-(1H-pyrazol-4-yl)phenyl]-2,8-diazaspiro[4.5]decan-1-one], it took 88 nM to reach half-maximal inhibition (IC50).
Next, `COc1cc(N2CCC3(CCN(C(=O)c4cc5cnccc5nc4C)CC3)C2=O)ccc1-c1cn[nH]c1` [Example 165, 2-[3-methoxy-4-(1H-pyrazol-4-yl)phenyl]-8-(2-methyl-1,6-naphthyridine-3-carbonyl)-2,8-diazaspiro[4.5]decan-1-one]: 896 nM.
Then `COc1cc(N2CCC3(CCN(C(=O)c4ccc5c(c4)CNC5=O)CC3)C2=O)ccc1-c1cn[nH]c1` [Example 144, 2-[3-methoxy-4-(1H-pyrazol-4-yl)phenyl]-8-(1-oxo-2,3-dihydro-1H-isoindole-5-carbonyl)-2,8-diazaspiro[4.5]decan-1-one], with 94 nM; and `COc1cc(N2CCC3(CCN(C(=O)c4cc[n+]([O-])cc4)CC3)C2=O)ccc1-c1cn[nH]c1` [Example 96, 4-{2-[3-methoxy-4-(1H-pyrazol-4-yl)phenyl]-1-oxo-2,8-diazaspiro[4.5]decane-8-carbonyl}pyridin-1-ium-1-olate], with 1100 nM.
Next, `COc1cc(N2CCC3(CCN(C(=O)c4cc(C)cs4)CC3)C2=O)ccc1-c1cn[nH]c1` [Example 82, 2-[3-methoxy-4-(1H-pyrazol-4-yl)phenyl]-8-(4-methylthiophene-2-carbonyl)-2,8-diazaspiro[4.5]decan-1-one]: 109 nM; `COc1cc(N2CCC3(CCN(C(=O)c4ccc(N5CCCC5)cn4)CC3)C2=O)ccc1-c1cn[nH]c1` [Example 54, 2-[3-methoxy-4-(1H-pyrazol-4-yl)phenyl]-8-[5-(pyrrolidin-1-yl)pyridine-2-carbonyl]-2,8-diazaspiro[4.5]decan-1-one]: 2.1 nM; `COc1ccc2c(OC)ccc(C(=O)N3CCC4(CC3)CCN(c3ccc(-c5cn[nH]c5)c(OC)c3)C4=O)c2c1` [Example 199, 8-(4,7-dimethoxynaphthalene-1-carbonyl)-2-[3-methoxy-4-(1H-pyrazol-4-yl)phenyl]-2,8-diazaspiro[4.5]decan-1-one]: 186 nM.
For `COc1cc(N2CCC3(CCN(C(=O)c4ccsc4)CC3)C2=O)ccc1-c1cn[nH]c1` [Example 67, 2-[3-methoxy-4-(1H-pyrazol-4-yl)phenyl]-8-(thiophene-3-carbonyl)-2,8-diazaspiro[4.5]decan-1-one], half-maximal inhibition (IC50) was put at 382 nM.
Next, `COc1cc(N2CCC3(CCN(C(=O)c4ccc(N5CCN(CC6CCOC6)CC5)cc4)CC3)C2=O)ccc1-c1cn[nH]c1` (stereo not shown) [Example 246, 2-[3-methoxy-4-(1H-pyrazol-4-yl)phenyl]-8-(4-{4-[(oxolan-3-yl)methyl]piperazin-1-yl}benzoyl)-2,8-diazaspiro[4.5]decan-1-one]: 0.7 nM.

For orientation: IC50 means the concentration that gives 50% inhibition. Low values mean greater potency, high ones weaker potency.
